Data from patent EP0347459A1, “CEPHALOSPORIN COMPOUNDS OR THEIR SALTS, PROCESS FOR THEIR PREPARATION, AND PHARMACEUTICAL COMPOSITIONS” (TEIJIN LIMITED, priority 1987, dated 1988).

Key:
Type in all cases: cell-based
E.cloacae 963 = experiment: In vitro antibacterial activity, agar disc dilution method; settings: Enterobacter cloacae; E.cloacae 963; Mueller Hinton agar, 10^6/ml, 37°C for 16 hours; read-out: minimum growth inhibitory concentration (MIC)
Experimental: (§1) An in vitro antibacterial activity was measured by an agar disc dilution method.
(§2) Varied test bacteria were cultivated overnight in triptophane-soybroth. A Mueller Hinton agar containing the compound of this invention in varied concentrations was streaked with one platinum loopful of each of the bacteria (number of living cells 10^6/ml).

K.pneumoniae PCI602 = experiment: as above; settings: Klebsiella pneumoniae; K.pneumoniae PCI602; Mueller Hinton agar, 10^6/ml, 37°C for 16 hours; read-out: minimum growth inhibitory concentration (MIC)
Experimental: as §1, §2

M.luteus ATCC9341 = experiment: as above; settings: Micrococcus luteus; M.luteus ATCC9341; Mueller Hinton agar, 10^6/ml, 37°C for 16 hours; read-out: minimum growth inhibitory concentration (MIC)
Experimental: as §1, §2

P.aeruginosa IFO3445 = experiment: as above; settings: Pseudomonas aeruginosa; P.aeruginosa IFO3445; Mueller Hinton agar, 10^6/ml, 37°C for 16 hours; read-out: minimum growth inhibitory concentration (MIC)
Experimental: as §1, §2

P.aeruginosa NCTC1049 = experiment: as above; settings: Pseudomonas aeruginosa; P.aeruginosa NCTC1049; Mueller Hinton agar, 10^6/ml, 37°C for 16 hours; read-out: minimum growth inhibitory concentration (MIC)
Experimental: as §1, §2

P.aeruginosa PAD1 = experiment: as above; settings: Pseudomonas aeruginosa; P.aeruginosa PAD1; Mueller Hinton agar, 10^6/ml, 37°C for 16 hours; read-out: minimum growth inhibitory concentration (MIC)
Experimental: as §1, §2

P.morganii IFO3445 = experiment: as above; settings: Morganella morganii; P.morganii IFO3445; Mueller Hinton agar, 10^6/ml, 37°C for 16 hours; read-out: minimum growth inhibitory concentration (MIC)
Experimental: as §1, §2

P.vulgalis OX-11 = experiment: as above; settings: P.vulgalis OX-11; Mueller Hinton agar, 10^6/ml, 37°C for 16 hours; read-out: minimum growth inhibitory concentration (MIC)
Experimental: as §1, §2

S. aureus Terajima = experiment: as above; settings: Staphylococcus aureus; S. aureus Terajima; Mueller Hinton agar, 10^6/ml, 37°C for 16 hours; read-out: minimum growth inhibitory concentration (MIC)
Experimental: as §1, §2

S.aureus 209p NIHJ JC1 = experiment: as above; settings: Staphylococcus aureus; S.aureus 209p NIHJ JC1; Mueller Hinton agar, 10^6/ml, 37°C for 16 hours; read-out: minimum growth inhibitory concentration (MIC)
Experimental: as §1, §2

S.enteritidis G14 = experiment: as above; settings: Salmonella enterica; S.enteritidis G14; Mueller Hinton agar, 10^6/ml, 37°C for 16 hours; read-out: minimum growth inhibitory concentration (MIC)
Experimental: as §1, §2

S.marcescens IAM1184 = experiment: as above; settings: Serratia marcescens; S.marcescens IAM1184; Mueller Hinton agar, 10^6/ml, 37°C for 16 hours; read-out: minimum growth inhibitory concentration (MIC)
Experimental: as §1, §2

S.pyogenes Cook = experiment: as above; settings: Streptococcus pyogenes; S.pyogenes Cook; Mueller Hinton agar, 10^6/ml, 37°C for 16 hours; read-out: minimum growth inhibitory concentration (MIC)
Experimental: as §1, §2

S.typhi 901 = experiment: as above; settings: Salmonella enterica, 16 h, read-out: minimum growth inhibitory concentration (MIC)
Experimental: as §1, §2

P.aeruginosa 0-11 = experiment: MIC values of 10 kinds of Pseudomonas aeruginosa; settings: Pseudomonas aeruginosa, 011, 16 h; P.aeruginosa 0-11 (Table II); read-out: MIC values
Experimental: as §1, §2
(§3) MIC values of 10 kinds of Pseudomonas aeruginosa were measured for Compound III, Comparative Example B and CAZ.

P.aeruginosa 64 = experiment: MIC values of 10 kinds of Pseudomonas aeruginosa; settings: Pseudomonas aeruginosa, 16 h; P.aeruginosa 64 (Table II); read-out: MIC values
Experimental: as §1, §2, §3

P.aeruginosa 88 = experiment: MIC values of 10 kinds of Pseudomonas aeruginosa; settings: Pseudomonas aeruginosa, 16 h; P.aeruginosa 88 (Table II); read-out: MIC values
Experimental: as §1, §2, §3

P.aeruginosa ATCC27318 = experiment: MIC values of 10 kinds of Pseudomonas aeruginosa; settings: 16 h, P.aeruginosa ATCC27318 (Table II), read-out: MIC values
Experimental: as §1, §2, §3

P.aeruginosa ATCC27577 = experiment: MIC values of 10 kinds of Pseudomonas aeruginosa; settings: 16 h, P.aeruginosa ATCC27577 (Table II), read-out: MIC values
Experimental: as §1, §2, §3

P.aeruginosa N-26 = experiment: MIC values of 10 kinds of Pseudomonas aeruginosa; settings: N26, 16 h, P.aeruginosa N-26 (Table II), read-out: MIC values
Experimental: as §1, §2, §3

P.aeruginosa N-2 = experiment: MIC values of 10 kinds of Pseudomonas aeruginosa; settings: N2, 16 h, P.aeruginosa N-2 (Table II), read-out: MIC values
Experimental: as §1, §2, §3

P.aeruginosa N-3 = experiment: MIC values of 10 kinds of Pseudomonas aeruginosa; settings: N3, 16 h, P.aeruginosa N-3 (Table II), read-out: MIC values
Experimental: as §1, §2, §3

P.aeruginosa NO. 97 = experiment: MIC values of 10 kinds of Pseudomonas aeruginosa; settings: 16 h, P.aeruginosa NO. 97 (Table II), read-out: MIC values
Experimental: as §1, §2, §3

P.aeruginosa Tid53 = experiment: MIC values of 10 kinds of Pseudomonas aeruginosa; settings: 16 h, P.aeruginosa Tid53 (Table II), read-out: MIC values
Experimental: as §1, §2, §3

Measured: MIC

CC(C)(ON=C(C(=O)NC1C(=O)N2C(C(=O)[O-])=C(C[n+]3ccc4cc(O)c(O)cc4c3)CSC12)c1nsc(N)n1)C(=O)O [Compound III, (6R,7R)-7-[(Z)-2-(5-amino-1,2,4-thiadiazol-3-yl)-2-(2-carboxypropyl-2-yloxyimino)acetamide]-3-(6,7-dihydroxy-2-isoquinolinium)methyl-3-ce phem-4-carboxylate]
3100 ng/mL: M.luteus ATCC9341 | S. aureus Terajima
12500 ng/mL: S.aureus 209p NIHJ JC1
1600 ng/mL: S.pyogenes Cook
12.5 ng/mL: P.aeruginosa IFO3445 | P.aeruginosa PAD1 | P.aeruginosa 64 | P.aeruginosa 88 | P.aeruginosa ATCC27318 | P.aeruginosa N-26 | P.aeruginosa N-3
25 ng/mL: P.aeruginosa N-2
5 ng/mL: all other assays above
